# Results published in patent US4563452A, “Derivatives of oxazinobenzothiazine-6,6-dioxide” (Provesan S.A., priority 1982, dated 1986).
# Where two headings read alike, the source gives them in different places.
# Key:
# [1] = test system: oedema produced by carrageenin; experiment: Anti-inflammatory activity (inhibition of oedema produced by carrageenin), method of Winter; format: in vivo, Male rats of the Sprague-Dawley HC/CEY strain; details: Rattus norvegicus, oral, 1 hour before carrageenin, ED-50 = dose which reduces the oedema volume by 25%
# Procedure: ANTI-INFLAMMATORY ACTIVITY (INHIBITION OF OEDEMA PRODUCED BY CARRAGEENIN)
# Method developed by Winter (Winter, C. A., Risley, E. A. and Nuss, G. W. Proc. Soc. Exp. Biol. Med., […] (1962)).
# Male rats of the Sprague-Dawley HC/CEY strain are used, weighing from 90 to 110 g. The products are administered suspended in 5% gum arabic, by an oral method using an oesophageal probe, 1 hour before a subplantar injection in the right foot of each animal of 0.1 ml of 1% carrageenin suspension in physiological serum (NaCl 0.9%). The control animals are given 5% gum arabic, the total volume which is used in every case amounting to 10 ml/kg.
# The volume of each foot is measured immediately before the carrageenin injection (time 0), then three and five hours after this injection using a mercury plethysmograph.
# The inflammation index is calculated for each animal after 3 hours (I3) and after 5 hours (I5) after the carrageenin injection by means of the following formulae: [formula] wherein: VO =volume of the foot at time zero (immediately before the administration of carrageenin)
# V3 =volume of the foot 3 hours after the injection of carrageenin
# V5 =volume of the foot 5 hours after the injection of carrageenin.
# The average inflammation index is calculated for the control batch after 3 hours (It3) and after 5 hours (It5).
# The percentage of inhibition of the oedema (anti-inflammatory activity) is calculated for each animal by means of the formulae: [formula] wherein: A3 =anti-inflammatory activity in percentage of inhibition of the oedema after 3 hours
# A5 =anti-inflammatory activity in percentage of inhibition of the oedema after 5 hours.
# The anti-inflammatory activity is proportional to the logarithm of the administered dose. The dose which reduces the volume of the odema by 25% is obtained from the curve of dose logarithm-% effect. This dose is adopted as ED-50, since the maximum effect which is achieved is the reduction of the oedema by 50%.
# [2] = test system: pain induced by acetyl choline; experiment: Analgesic activity with respect to the pain induced by acetyl choline (contortions), method of Collier; format: in vivo, Male mice of the Swiss strain; details: Mus musculus, po, dose which reduces the number of contortions to half the initial value
# Procedure: Analgesic activity with respect to the pain induced by acetyl choline
# Method developed by Collier (Collier, H. O. W. Dinneen, L. C. Johnson, C. A. and Schneider, C.--Br. J. Pharmac. Chemother., 32, 295-310 (1968)).
# Male mice of the Swiss strain are used, weighing from 20 to 25 g. The mice are put into individual cages. A volume of 0.2 ml/20 g of a solution of acetyl choline bromide of 0.32 mg/ml is administered intraperitoneally to each animal. Thus, the injected dose of acetyl choline bromide is 3.2 mg/kg. The number of contortions or stretches performed by each mouse is counted over a period of 5 minutes. After 5 minutes, the products are administered using 5% gum arabic as a vehicle. After 40 and 120 minutes of administration of the products, another injection of acetyl choline is given and the number of contortions which are observed over a period of 5 minutes is counted.
# The percentage of inhibition of the number of contortions after 40 and 120 minutes is calculated for each animal using the following formulae: [formula] wherein: NO =number of contortions before the product is administered
# N40 =number of contortions 40 minutes after administration of the product
# N120 =number of contortions 120 minutes after administration of the product.
# The percentage of inhibition of the contortions is directly proportional to the logarithm of the administered dose. The dose which reduces the number of contortions to half the initial value (ED-50) is obtained from the curve of dose logarithm-% effect.
# [3] = biological target: T1, prostaglandin-synthetase (1.14.99.1) (Bos taurus, UniProt O62664); experiment: Inhibition of the prostaglandin-synthetase of seminal vesicle of cattle, method of Yoshimoto; format: biochemical; details: in vitro; 37° C., 5 minutes contact of enzyme with product, then 10 minutes incubation with arachidonic acid; pH 8.0
# T1 construct: Prostaglandin-Synthetase of Seminal Vesicle of Cattle; from tissue; host or cells: seminal vesicle of cattle
# T1 sequence (O62664 25-600): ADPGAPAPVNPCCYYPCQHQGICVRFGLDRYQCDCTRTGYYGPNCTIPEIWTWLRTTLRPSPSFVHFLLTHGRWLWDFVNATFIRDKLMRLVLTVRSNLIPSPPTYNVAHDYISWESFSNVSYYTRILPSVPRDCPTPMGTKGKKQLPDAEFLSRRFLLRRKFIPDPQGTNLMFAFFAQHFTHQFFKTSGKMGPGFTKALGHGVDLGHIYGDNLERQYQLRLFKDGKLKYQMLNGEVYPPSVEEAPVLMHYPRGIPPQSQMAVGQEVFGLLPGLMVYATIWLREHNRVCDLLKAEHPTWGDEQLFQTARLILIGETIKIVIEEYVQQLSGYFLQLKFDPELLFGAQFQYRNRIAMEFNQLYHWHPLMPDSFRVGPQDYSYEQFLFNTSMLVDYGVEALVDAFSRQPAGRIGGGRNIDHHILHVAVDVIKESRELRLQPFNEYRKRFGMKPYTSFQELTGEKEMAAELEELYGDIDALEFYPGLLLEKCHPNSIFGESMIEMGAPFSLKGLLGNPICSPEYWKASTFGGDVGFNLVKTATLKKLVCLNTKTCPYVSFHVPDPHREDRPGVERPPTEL
# Procedure: Inhibition of the Prostaglandin-Synthetase of Seminal Vesicle of Cattle
# The activity of the prostaglandin-synthetase (1.14.99.1) is determined by measuring the increases in absorbance at 278 nm due to the formation of prostaglandin B from prostaglandin E in an alkaline medium.
# The incubation temperature was 37±0.1° C. in every case.
# 0.5 ml of substrate solution (0.6 mg of arachidonic acid in 10 ml of buffer) and 0.5 ml of buffer are added to 1.5 ml of cofactor solution (0.55 mg of hydroquinone+0.5 mg of hemoglobin+7.7 mg of glutathione in 12 ml of 0.2M Tris-HCl buffer of pH 8.0), containing 10 mg of enzyme, and the mixture is incubated at 37° C. for 10 minutes. The enzymatic reaction is stopped by the addition of 1.5 ml of 0.2M citric acid and the pGE is extracted with 2×5 ml of ethyl acetate. The organic phase is evaporated under a stream of nitrogen at 40° C. and the residue is redissolved in 2 ml of methanol and 0.5 ml of 3M potassium hydroxide. Finally, the absorptions at 278 nm are measured with respect to a blank to which 0.5 ml of buffer are added instead of 0.5 ml of substrate solution.
# The enzymatic activity is expressed as an increase in the optical density for 10 minutes of reaction.
# The subsequent stages are identical to those which have already been described. […]
# [4] = 3 hours after carrageenin injection, read-out: ED-50 3 hours
# [5] = 5 hours after carrageenin injection, read-out: ED-50 5 hours
# [6] = 40 min, 40 minutes after administration, read-out: ED-50 40 min.
# [7] = 2 h, 120 minutes after administration, read-out: ED-50 120 min.
SMILES,"ED50 [1, 4]","ED50 [1, 5]","ED50 [2, 6]","ED50 [2, 7]",IC50 [3]
"CCN1c2c(oc(=O)n(-c3ccccn3)c2=O)-c2ccccc2S1(=O)=O [Example 1, 5-ethyl-3-(2-pyridyl)-2H,5H-1,3-oxazino[5,6-c][1,2]benzothiazine-2,4-(3H)dione-6,6-dioxide]",> 40 mg/kg,> 40 mg/kg,> 160 mg/kg,> 160 mg/kg,
"CN1c2c(oc(=O)n(-c3ccccn3)c2=O)-c2ccccc2S1(=O)=O [Example 2, 5-methyl-3-(2-pyridyl)-2H,5H-1,3-oxazino[5,6-c][1,2]benzothiazine-2,4-(3H)dione-6,6-dioxide]",2.3 mg/kg,2.6 mg/kg,1.8 mg/kg,1.1 mg/kg,100 µM
"CN1c2c(oc(=S)n(-c3ccccn3)c2=O)-c2ccccc2S1(=O)=O [Example 3, 5-methyl-3-(2-pyridyl)-2H,5H-1,3-oxazino[5,6-c][1,2]benzothiazine-2(3H)thione-4-one-6,6-dioxide]",> 40 mg/kg,> 40 mg/kg,25 mg/kg,25 mg/kg,
"Cc1cc(-n2c(=O)oc3c(c2=O)N(C)S(=O)(=O)c2ccccc2-3)no1 [Example 4, 5-methyl-3-[3-(5-methylisoxazolyl)]-2H,5H-1,3-oxazino[5,6-c][1,2]benzothiazine-2,4-(3H)dione-6,6-dioxide]",38 mg/kg,39 mg/kg,154 mg/kg,154 mg/kg,
"CN1c2c(oc(=O)n(-c3ncccn3)c2=O)-c2ccccc2S1(=O)=O [Example 5, 5-methyl-3-(2-pyrimidinyl)-2H,5H-1,3-oxazino[5,6-c][1,2]benzothiazine-2,4-(3H)dione-6,6-dioxide]",> 40 mg/kg,> 40 mg/kg,> 160 mg/kg,> 160 mg/kg,
"Cc1ccnc(-n2c(=O)oc3c(c2=O)N(C)S(=O)(=O)c2ccccc2-3)c1 [Example 6, 5-methyl-3-[2-(4-methylpyridyl)]-2H,5H-1,3-oxazino[5,6-c][1,2]benzothiazine-2,4-(3H)dione-6,6-dioxide]",> 40 mg/kg,> 40 mg/kg,> 160 mg/kg,> 160 mg/kg,
"Cc1cccc(-n2c(=O)oc3c(c2=O)N(C)S(=O)(=O)c2ccccc2-3)n1 [Example 7, 5-methyl-3-[2-(6-methylpyridyl)]-2H,5H-1,3-oxazino[5,6-c][1,2]benzothiazine-2,4-(3H)dione-6,6-dioxide]",20 mg/kg,25 mg/kg,7.5 mg/kg,10 mg/kg,
"CCCCC1C(=O)N(c2ccccc2)N(c2ccccc2)C1=O [Phenylbutazone, reference compound]",17 mg/kg,17 mg/kg,40 mg/kg,35 mg/kg,300 µM
